Measurements taken from US20100137275A1 (IPSEN PHARMA S.A.S., priority 2007, published 2010).

What was measured:
[1] = test system: Mia-PaCa2 (human pancreas cancer cells); experiment: Anti-proliferative activity on Mia-Paca2 cell line (WST1 colorimetric test); type: cell-based; details: MIA PaCa-2, 96 h, 96 hours treatment, read-out: IC50 on proliferation of the Mia-Paca2 cell line
Protocol: (§1) By way of an example, the effect of treating two human cell lines Mia-Paca2 and DU145 with the compounds of the examples described hereinbefore will be studied. The cell lines DU145 (human prostate cancer cells) and Mia-PaCa2 (human pancreas cancer cells) were obtained from the American Tissue Culture Collection (Rockville, Md., USA). A 96-well plate was inoculated on day 0 with cells placed in 80 μl of Dulbecco's modified Eagle's medium (Gibco-Brl, Cergy-Pontoise, France) with 10% heat-inactivated foetal calf serum (Gibco-Brl, Cergy-Pontoise, France), 50000 units/1 of penicillin and 50 mg/l of streptomycin (Gibco-Brl, Cergy-Pontoise, France), and 2 mM of glutamine (Gibco-Brl, Cergy-Pontoise, France). The cells were treated on day 1 with increasing concentrations of each test compound up to 10 μM for 96 hours. At the end of this period, cell proliferation is quantified by means of a colorimetric test based on cleavage of the tetrazolium salt WST1 by the mitochondrial dehydrogenases in the viable cells, resulting in formation of formazan (Boehringer Mannheim, Meylan, France). These tests are performed in duplicate with 8 determinations per concentration tested. For each compound to be tested, the values within the linear part of the sigmoid curve were subjected to linear regression analysis and used to estimate the IC50 inhibitory concentration. The products are solubilised in dimethylsulfoxide (DMSO) at a concentration of 10^−2 M and used in culture with a final DMSO concentration of 0.1%.

[2] = test system: DU145 (human prostate cancer cells); experiment: Anti-proliferative activity on DU-145 cell line (WST1 colorimetric test); type: cell-based; details: DU-145, 96 h, 96 hours treatment, read-out: IC50 on the proliferation of the DU-145 cell line
Protocol: as §1

[3] = molecular target: T1, purified recombinant Cdc25-C enzyme (MBP-Cdc25C protein) (Homo sapiens, UniProt P30307); experiment: Phosphatase activity of the purified recombinant Cdc25C enzyme (OMFP dephosphorylation, fluorescence); type: biochemical; details: OMFP 500 μM, 4 hours at 30° C.
T1 construct: made in house
T1 sequence (P30307 1-473): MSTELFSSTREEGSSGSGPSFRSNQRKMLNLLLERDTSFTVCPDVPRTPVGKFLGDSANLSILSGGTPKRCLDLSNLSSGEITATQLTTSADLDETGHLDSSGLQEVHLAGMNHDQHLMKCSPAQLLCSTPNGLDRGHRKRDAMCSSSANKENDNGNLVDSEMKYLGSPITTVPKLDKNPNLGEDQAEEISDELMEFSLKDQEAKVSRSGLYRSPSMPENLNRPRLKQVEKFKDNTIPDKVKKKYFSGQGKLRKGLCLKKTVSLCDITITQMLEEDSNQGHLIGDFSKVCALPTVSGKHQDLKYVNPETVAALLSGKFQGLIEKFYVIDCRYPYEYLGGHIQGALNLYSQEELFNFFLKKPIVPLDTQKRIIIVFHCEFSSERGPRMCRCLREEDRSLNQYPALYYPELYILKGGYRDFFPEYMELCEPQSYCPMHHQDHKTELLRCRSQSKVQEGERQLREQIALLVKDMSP
In short: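 MBP-Cdc25C fusion protein in 50 mM Tris-HCl pH 8.2, 50 mM NaCl, 1 mM DTT, 20% glycerol; reaction started with 500 μM OMFP (final). Compounds tested at decreasing concentrations from 40 μM; 4 h at 30 °C, OMF fluorescence read at 475 nm. IC50 from three independent experiments by linear regression over the linear part of the sigmoid.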

SMILES | IC50 [1] [µM] | IC50 [2] [µM] | melting point [°C] | IC50 [3] [µM]
CN(CCNC(=O)Nc1cccc2nsnc12)CCNc1cc(N2CCCC2)nc(N2CCCC2)n1 [Example 15, N-2,1,3-benzothiadiazol-4-yl-N′-{2-[{2-[(2,6-dipyrrolidin-1-ylpyrimidin-4-yl)amino]ethyl}(methyl)amino]ethyl}urea] | ≤ 5 | ≤ 5 | 126 to 128 | ≤ 1
COc1cc(NC(=S)NCCN(C)CCNc2cc(N3CCCC3)nc(N3CCCC3)n2)cc(OC)c1OC [Example 38, N-{2-[{2-[(2,6-dipyrrolidin-1-ylpyrimidin-4-yl)amino]ethyl}(methyl)amino]ethyl}-N′-(3,4,5-trimethoxyphenyl)thiourea] | ≤ 5 | ≤ 5 | 109 to 111 | ≤ 1
CN(CCNC(=S)Nc1ccc(S(=O)(=O)c2ccc(Br)cc2)cc1)CCNc1cc(N2CCCC2)nc(N2CCCC2)n1 [Example 60, N-{4-[(4-bromophenyl)sulfonyl]phenyl}-N′-{2-[{2-[(2,6-dipyrrolidin-1-ylpyrimidin-4-yl)amino]ethyl}(methyl)amino]ethyl}thiourea] | ≤ 5 | ≤ 5 | 118 to 120 | ≤ 1
CN(CCNc1cc(N2CCCC2)nc(N2CCCC2)n1)CCNS(=O)(=O)c1ccc(C(F)(F)F)cc1 [Example 89, N-{2-[{2-[(2,6-dipyrrolidin-1-ylpyrimidin-4-yl)amino]ethyl}(methyl)amino]ethyl}-4-(trifluoromethyl)benzenesulfonamide] | ≤ 5 | ≤ 5 | 140 to 142 | ≤ 5
CN(CCNC(=S)Nc1ccc(S(=O)(=O)N2CCCCC2)cc1)CCNc1cc(N2CCCC2)nc(N2CCCC2)n1 [Example 27, N-{2-[{2-[(2,6-dipyrrolidin-1-ylpyrimidin-4-yl)amino]ethyl}(methyl)amino]ethyl}-N′-[4-(piperidin-1-ylsulfonyl)phenyl]thiourea] | ≤ 5 | ≤ 5 | 120 to 122 | ≤ 5
CN(CCNc1cc(N2CCCC2)nc(N2CCCC2)n1)CCNS(=O)(=O)c1cccc(C(F)(F)F)c1 [Example 88, N-{2-[{2-[(2,6-dipyrrolidin-1-ylpyrimidin-4-yl)amino]ethyl}(methyl)amino]ethyl}-3-(trifluoromethyl)benzenesulfonamide] | ≤ 5 | ≤ 5 | 203 to 205 | ≤ 5
CN(CCNC(=S)Nc1ccc(Cl)cc1)CCNc1cc(N(C)C)nc(N(C)C)n1 [Example 73, N-{2-[(2-{[2,6-bis(dimethylamino)pyrimidin-4-yl]amino}ethyl)(methyl)amino]ethyl}-N′-(4-chlorophenyl)thiourea] | ≤ 5 | ≤ 5 | 127 to 129 | ≤ 5
CN(CCNC(=O)Nc1ccc(Cl)c(Cl)c1)CCNc1cc(N2CCCC2)nc(N2CCCC2)n1 [Example 17, N-(3,4-dichlorophenyl)-N′-{2-[{2-[(2,6-dipyrrolidin-1-ylpyrimidin-4-yl)amino]ethyl}(methyl)amino]ethyl}urea] | ≤ 5 | ≤ 5 | 138 to 139 | ≤ 1
CN(CCNC(=S)Nc1cccnc1Oc1ccc(F)cc1F)CCNc1cc(N2CCCC2)nc(N2CCCC2)n1 [Example 47, N-[2-(2,4-difluorophenoxy)pyridin-3-yl]-N′-{2-[{2-[(2,6-dipyrrolidin-1-ylpyrimidin-4-yl)amino]ethyl}(methyl)amino]ethyl}thiourea] | ≤ 5 | ≤ 5 | 108 to 110 | ≤ 1
O=C(NCCCCCNc1cc(N2CCCC2)nc(N2CCCC2)n1)Nc1ccc(Cl)cc1 [Example 19, N-(4-chlorophenyl)-N′-{5-[(2,6-dipyrrolidin-1-ylpyrimidin-4-yl)amino]pentyl}urea] | ≤ 5 | ≤ 5 | 192 to 193 | ≤ 1

Continued, values first:

IC50 [1] [µM] | IC50 [2] [µM] | melting point [°C] | IC50 [3] [µM] | SMILES
≤ 5 | ≤ 5 | 71 to 73 | ≤ 1 | CN(CCNC(=O)Nc1ccc(Cl)cc1)CCNc1cc(N2CCCC2)nc(N2CCCC2)n1 [Example 16, N-(4-chlorophenyl)-N′-{2-[{2-[(2,6-dipyrrolidin-1-ylpyrimidin-4-yl)amino]ethyl}(methyl)amino]ethyl}urea]
≤ 5 | ≤ 5 | 146 to 148 | ≤ 1 | CN(CCNC(=S)Nc1ccc(S(=O)(=O)Nc2ccccc2)cc1)CCNc1cc(N2CCCC2)nc(N2CCCC2)n1 [Example 62, 4-{[({2-[{2-[(2,6-dipyrrolidin-1-ylpyrimidin-4-yl)amino]ethyl}(methyl)amino]ethyl}amino)carbonothioyl]amino}-N-phenylbenzenesulfonamide]
≤ 5 | ≤ 5 | 105 to 107 | ≤ 5 | CN(CCNC(=S)Nc1ccccc1F)CCNc1cc(N2CCCC2)nc(N2CCCC2)n1 [Example 42, N-{2-[{2-[(2,6-dipyrrolidin-1-ylpyrimidin-4-yl)amino]ethyl}(methyl)amino]ethyl}-N′-(2-fluorophenyl)thiourea]
≤ 5 | ≤ 5 | 146 to 148 |  | CN(CCNC(=S)Nc1ccc(Cl)cc1)CCNc1cc(N2CCC2)nc(N2CCC2)n1 [Example 75, N-(4-chlorophenyl)-N′-{2-[{2-[(2,6-diazetidin-1-ylpyrimidin-4-yl)amino]ethyl}(methyl)amino]ethyl}thiourea]
≤ 5 | ≤ 5 | 64 to 66 | ≤ 1 | CN(CCNC(=S)NCc1ccc(F)cc1)CCNc1cc(N2CCCC2)nc(N2CCCC2)n1 [Example 46, N-{2-[{2-[(2,6-dipyrrolidin-1-ylpyrimidin-4-yl)amino]ethyl}(methyl)amino]ethyl}-N′-(4-fluorobenzyl)thiourea]
≤ 5 | ≤ 5 | 116 to 118 | ≤ 5 | CN(CCNC(=S)Nc1ccc(-n2cccn2)cc1)CCNc1cc(N2CCCC2)nc(N2CCCC2)n1 [Example 48, N-{2-[{2-[(2,6-dipyrrolidin-1-ylpyrimidin-4-yl)amino]ethyl}(methyl)amino]ethyl}-N′-[4-(1H-pyrazol-1-yl)phenyl]thiourea]
≤ 5 | ≤ 5 | 96 to 98 | ≤ 1 | CN(CCNC(=S)Nc1ccc(Cl)nc1)CCNc1cc(N2CCCC2)nc(N2CCCC2)n1 [Example 53, N-(6-chloropyridin-3-yl)-N′-{2-[{2-[(2,6-dipyrrolidin-1-ylpyrimidin-4-yl)amino]ethyl}(methyl)amino]ethyl}thiourea]
